Source: patent US9868954B2, “Reduction of TGFβ signaling in myeloid cells in the treatment of cancer” (The United States of America, as represented by the …, priority 2011, dated 2018)

Tested on: Gr-1+CD11b+ myeloid cells from Tgfbr2^myeKO
Assay: Expression of IL-10, IL-4 and PF4 (Western blotting, quantitative PCR) in sorted Gr-1+CD11b+ myeloid cells cultured with pathway inhibitors
Type: cell-based, mice
Conditions: myeloid cells lacking Tgfbr2, cultured 6 hours with inhibitor; mRNA level and protein level
Description: Gr-1+CD11b+ myeloid cells were sorted with MACS from Tgfbr2^myeKO and cultured for 6 hours with an inhibitor of GSK3 (SB216763, Sigma) or PI3K (LY294002, Calbiochem) at different doses (2, 5, and 10 μM for the GSK3 inhibitor; 5, 10, and 20 μM for the PI3K inhibitor). SB216763 is a potent and selective ATP-competitive inhibitor of the serine/threonine protein kinas GSK α and β. […] GSK3 Western blotting was performed to detect inhibiting activity. The expression of IL-10, IL-4, and PF4 was examined using Western blotting and quantitative PCR.

Structure (SMILES) | expression of IL-10, IL-4, and PF4
Cc1ccc2nc(NCCN)c3ncc(C)n3c2c1 [BMS-345541] | did not show a significant effect
Cn1cc(C2=C(c3ccc(Cl)cc3Cl)C(=O)NC2=O)c2ccccc21 [SB216763] | reversed the down-regulation of IL-10, IL-4, and PF4
